Measured values taken from patent US20260355318A1, “MOLECULAR MACHINES FOR TREATMENT OF CANCER, FUNGAL INFECTIONS, OR BACTERIAL INFECTIONS” (priority 2022, published 2026).

Legend:
[1] = test system: C. albicans mitochondria and plasma membrane; test: Colocalization analysis by confocal microscopy; type: cell-based, Candida albicans; details: no light
Method: Colocalization analysis of MMs was performed as previously described (Benhamou et al., 2018; Vida and Emr, 1995) with modifications. A single isolated colony was picked from 24-h SDAE plates, diluted in liquid YPD, and grown at 30 ° C for 24 h. Cells were then re-diluted in fresh YPD medium and grown statically in Ibidi u-dishes (Ibidi GmbH, Munich, Germany) for 24 h at 30 ° C The cells were washed, and then YPD medium containing 8 μM MM 1 and 10 nM MitoTracker™ Green (Thermo Fisher Scientific, MA, USA) was added. After a 30-min dark incubation at 30 ° C, the solution was replaced with fresh medium containing 40 nM FM™ 4-64 (Thermo Fisher Scientific, MA, USA). Cells were immediately imaged in a Nikon Al—RSI confocal system mounted on a Nikon Ti-E widefield fluorescence microscope (Nikon Corporation, NY, USA). Cells were imaged directly on the Ibidi imaging dish using a 60×water immersion objective (numerical aperture of 1.27, 0.17 mm working distance). Colocalization was calculated in the Fiji version of ImageJ using the Colocalization Threshold tool and the Coloc-2 plugin.

[2] = test system: superoxide dismutase; test: Superoxide dismutase (SOD) activity; type: cell-based, Candida albicans; details: 0.5×MIC, p<0.05
Method: Superoxide dismutase (SOD) activity was determined using a Superoxide Dismutase Assay Kit (Caymanchem, MI, USA) per the distributor's instructions. Lipid peroxidation was determined using a TBARS assay kit (TCA method) (Caymanchem, MI, USA) per the distributor's instructions. SOD activity and MDA levels were normalized by protein content determined by the Pierce assay (Pierce™ BCA Protein Assay Kit, Thermo Fisher Scientific, MA, USA).

[3] = test system: B. megaterium; test: MIC, B. megaterium; type: cell-based, Bacillus megaterium; details: Priestia megaterium, 405 nm light
Method: The appropriate volume of an MM stock at 8 mM necessary to achieve a concentration ranging from 0.3125 to 40 μM was pipetted into a 2 mL microcentrifuge tube to which 1 mL of cell suspension prepared as previously described was added. Corresponding negative controls (DMSO only) were prepared in the same way. The mixture was gently mixed by pipetting and incubated in the dark at 30 or 37 ° C, depending on the strain, for 30 min with agitation (220 rpm). Afterward, MM- or DMSO-treated cells were dispensed in one well of a 24-well plate positioned in the center of the light beam (405 nm LED Light, Prizmatix, UHP—F-5-405) placed at the appropriate distance necessary to achieve the desired light intensity of 304 mW cm-2, 146 mW cm2 or 87 mW cm2, as measured with a handheld digital power meter console coupled to an S415C thermal power sensor head (Thorlabs, Newton, MA, USA). The temperature during irradiation was monitored using a thermocouple probe (Model SC-TT-K-30-36-PP; Omega Engineering, Inc., Stanford, CT, USA). Samples were agitated during irradiation. Dark controls were prepared as previously described except that no irradiation was provided. […]

[4] = test system: E. coli transcripts; test: RNAseq of MM 1-treated E. coli; type: cell-based, Escherichia coli
Method: Three independent, well-isolated colonies of E. coli were cultured to mid-log phase in MHB media. Cells were collected and resuspended in PBS (1×) to an OD600 of ≈0.05. […] Cells were then irradiated for 5 min at 146 mW cm^−2 (43.8 J cm^−2). Bacterial cells were collected onto a 0.2 μm PES filter by low vacuum filtration. Two volumes of RNAprotect (Qiagen, Valencia, CA) were added to the cells, and the samples were then centrifuged at 5000 g for 25 min at 4 ° C to pellet cells. RNA was isolated using the RNeasy Mini Kit (Qiagen, Valencia, CA) per the manufacturer's instructions. RNA sequencing (RNAseq) and data analysis were performed by DNA Link Inc. (Seoul, Republic of Korea). RNA-Seq libraries were constructed by using TruSeq Stranded Total RNA with Ribo-Zero Plus rRNA Depletion Kit and sequenced on the Illumina NovaSeq6000 platform (Illumina, San Diego, CA) in the 100 nt, paired-end configuration. From each sample, an average of 70 million reads was obtained. For gene expression analysis, reads were trimmed with cutadapt (Magoc et al., 2013) and aligned to the reference genome of Escherichia coli str. K-12 substr. MG1655 (NC_000913) using EDGE-pro pipeline with default setting. Differential expression analysis was performed with DESeq2 in Bioconductor (Love et al., 2014). Gene annotation was performed using an in-house script based on NCBI reference annotations.

[5] = test system: E. coli; test: Protein carbonyl levels, E. coli; type: cell-based, Escherichia coli; details: 1×MIC MM 1

For `C[C@@H]1Cc2ccc3ccccc3c2/C1=C1\c2ccccc2Sc2cc(NCCN(C)C)ccc21` [MM 1, N^1N^1-dimethyl-N^2-(9-(2-methyl-2,3-dihydro-1H-cyclopenta[a]naphthalen-1-ylidene)-9H-thioxanthen-3-yl) ethane-1,2-diamine], the “areal colocalization with FM 4-64” value [1] was 5.2%, the “areal colocalization with MitoTracker Green” value [1] was 52.5% and the superoxide dismutase activity [2] was “increased superoxide dismutase activity”. The MIC [3] was 0.078 µM, the “transcripts significantly more abundant in MM-treated samples” value ([4]; 0.5×MIC) was 1362 transcripts and the “transcripts with significantly different levels vs DMSO” value ([4]; 0.5×MIC, p<0.05) was 2694 transcripts. For the same molecule, the “transcripts significantly more abundant in DMSO controls” value ([4]; MM 1 0.5×MIC versus DMSO) was 1332 transcripts, the “maximum difference in transcript abundance between treatments” value ([4]; MM 1 versus DMSO) was at most 5 fold and the “Transcript Fold Change, argC” value ([4]; gene argC, p<0.05, 5 min) was 2.0. The “Transcript Fold Change, argF” value ([4]; gene argF, p<0.05, 5 min) was 2.2, the “Transcript Fold Change, argI” value ([4]; gene argI, p<0.05, 5 min) was 2.8 and the “Transcript Fold Change, artJ” value ([4]; gene artJ, p<0.05, 5 min) was 2.5. For the same molecule, the “Transcript Fold Change, asr” value ([4]; gene asr, p<0.05, 5 min) was 2.2, the “Transcript Fold Change, bfd” value ([4]; gene bfd, p<0.05, 5 min) was 2.0 and the “Transcript Fold Change, cdh” value ([4]; gene cdh, p<0.05, 5 min) was 2.5. For the same molecule, the “Transcript Fold Change, prpB” value ([4]; gene prpB, p<0.05, 5 min) was 5.5, the “Transcript Fold Change, prpC” value ([4]; gene prpC, p<0.05, 5 min) was 5.0 and the “Transcript Fold Change, tauA” value ([4]; gene tauA, p<0.05, 5 min) was 2.5. For the same molecule, the “Transcript Fold Change, tynA” value ([4]; gene tynA, p<0.05, 5 min) was 2.6, the “Transcript Fold Change, yiaW” value ([4]; gene yiaW, p<0.05, 5 min) was 2.2 and the “Transcript Fold Change, ymdF” value ([4]; gene ymdF, p<0.05, 5 min) was 2.4. For the same molecule, the “Transcript Fold Change, ymgC” value ([4]; gene ymgC, p<0.05, 5 min) was 2.3 and the protein carbonyl levels [5] was “not significantly changed”.
